Data reported in article PMC11678237 (2024).
Each block holds one compound with its values, some of them ahead of it.

Key:
[1] = system: poly(dA)•2poly(dT) (DNA, polymer) A/T; assay: UV melting, 260 nm; settings: pH 7.0; for binding / ΔTm3→2: 150 mM KCl, 10 mM sodium cacodylate; for ΔTm3→2: per base
[2] = system: DNA3 (DNA, triplex) GAAAAAAAAAAAAAGTTTTCTTTTTTTTTTTTCTTTTCTTTTTTTTTTTTTC; assay: ITC; settings: 100 mM NaCl, 10 mM sodium cacodylate, pH 7.0, 15 °C; for Kd: independent model
[3] = system: poly(dA)•2poly(dT) (DNA, polymer) A/T; assay: viscosity; settings: 150 mM KCl; 10 mM sodium cacodylate, pH 7.0, room temperature; intercalation
[4] = system: DNA3 (DNA, triplex) GAAAAAAAAAAAAAGTTTTCTTTTTTTTTTTTCTTTTCTTTTTTTTTTTTTC; assay: CD titration; settings: 100 mM NaCl; 10 mM sodium cacodylate, pH 7.0, 15 °C; 0 to 50 μM compound
[5] = system: DNA1/DNA2/TFO1 triplex (DNA, triplex) ATGGCAAAAAAAAGGAGAAGCTGACCACCTGACTA/TAGTCAGGTGGTCAGCTTCTCCTTTTTTTTGCCAT/CTTTCTTTTTTTTTCCTCTTC; assay: native PAGE gel shift; settings: none added; 90 mM Tris–acetate, pH 5.0; 1 to 100 μM compound; triplex formation promoted
[6] = system: poly(dA)•poly(dT) (DNA, polymer) A/T; assay: UV melting; settings: 150 mM KCl; 10 mM sodium cacodylate, pH 7.0; 10 μM compound; Tm2→1 stays near 72 °C
[7] = system: DNA4 (DNA, hairpin) GAAAAAAAAAAAAAGTTTTCTTTTTTTTTTTTTC; assay: CD titration; settings: 100 mM NaCl; 10 mM sodium cacodylate, pH 7.0, 15 °C; 0 to 50 μM compound
[8] = system: DNA4 (DNA, hairpin) GAAAAAAAAAAAAAGTTTTCTTTTTTTTTTTTTC; assay: ITC; settings: 100 mM NaCl; 10 mM sodium cacodylate, pH 7.0, 15 °C; 100 μM ligand titrant; heat of dilution only
[9] = 10 μM compound, 15 μM base triplet
[10] = 10 mM lithium cacodylate, no added salt, 10 μM compound, Tm not shift, no triplex without ligand, duplex Tm 58 °C

Structure (SMILES): O=c1cc(-c2ccccc2)oc2cccc(O)c12
binding [1, 9]: weak
binding ([2]; 100 μM ligand titrant, heat of dilution only): no

Structure (SMILES): O=c1cc(-c2ccccc2)oc2cccc(OCCCO)c12
ΔTm3→2 [1, 9]: 5.4 °C

Structure (SMILES): NCCCOc1cccc2oc(-c3ccccc3)cc(=O)c12
ΔTm3→2 [1, 9]: 23.2 °C

Structure (SMILES): CC(C)CCCOc1cccc2oc(-c3ccccc3)cc(=O)c12
binding [1, 9]: no

Structure (SMILES): CN1CCN(CCCOc2cccc3oc(-c4ccccc4)cc(=O)c23)CC1
ΔTm3→2 [1, 9]: 25.7 °C

Structure (SMILES): CCCN(CCC)CCCOc1cccc2oc(-c3ccccc3)cc(=O)c12
ΔTm3→2 [1, 9]: 23.8 °C

Structure (SMILES): CCN(CC)CCCOc1cccc2oc(-c3ccccc3)cc(=O)c12
ΔTm3→2 [1, 9]: 24.4 °C

Structure (SMILES): O=c1cc(-c2ccccc2)oc2cccc(OCCCCN3CCCCC3)c12
Tm3→2 [1, 10]: 40 °C
ΔTm3→2 [1, 9]: 12.1 °C
Kd [2]: 3.08 ± 1.26 × 10^-5 M

The next lines start with the values.

binding ([1]; 0 to 20 μM compound, no effect at 0.5 μM): yes
Structure (SMILES): NC[C@@H]1O[C@H](O[C@H]2[C@@H](O)[C@H](O[C@@H]3[C@@H](O)[C@H](N)C[C@H](N)[C@H]3O[C@H]3O[C@H](CN)[C@@H](O)[C@H](O)[C@H]3N)O[C@@H]2CO)[C@H](N)[C@@H](O)[C@@H]1O

Tm3→2 [1, 10]: 55 °C
ΔTm3→2 [1, 9]: 22.6 °C
Kd [2]: 2.10 ± 1.12 × 10^-5 M
Structure (SMILES): O=c1cc(-c2ccccc2)oc2cccc(OCCN3CCCCC3)c12

ΔTm3→2 [1, 9]: 26.7 °C
Structure (SMILES): O=c1cc(-c2ccccc2)oc2cccc(OCCCN3CCOCC3)c12

binding [3]: yes
Tm3→1 [1, 10]: 60.7 °C
binding [4]: yes
binding [5]: yes
binding [6]: no
Kd [2]: 1.01 ± 0.20 × 10^-5 M
binding [7]: no
binding [8]: no
Structure (SMILES): O=c1cc(-c2ccccc2)oc2cccc(OCCCN3CCCCC3)c12

ΔTm3→2 [1, 9]: 19.4 °C
Structure (SMILES): O=c1cc(-c2ccccc2)oc2cccc(OCCCN3CCCC3)c12
